This note sets out measurements from patent publication US9670227B2, “Thienopyrimidine derivatives, a process for their preparation and pharmaceutical compositions containing them” (LES LABORATOIRES SERVIER, priority 2013, dated 2017).

Like-named read-outs stand apart in the source and are kept apart here.

In assay [1] the target is Mcl-1 protein (UniProtKB primary accession number: Q07820) (Homo sapiens, UniProt Q07820). The assay is described as follows: Inhibition of Mcl-1 by fluorescence polarisation, Method 1. The class given is binding. The conditions noted are these: for IC50: read-out: IC50 (M) Mcl-1 FP. Summed up:
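Fluorescence polarisation competition with an 11-point compound dilution series (final DMSO 5%). Mcl-1 protein at 5 nM and fluorescein-labelled ligand at 1 nM (final) in 10 mM HEPES, 150 mM NaCl, 0.05% Tween 20, pH 7.4.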
For orientation: Fluorescence polarisation rises when a labelled molecule tumbles more slowly, as on binding a larger partner.

Assay [2] has as its system H929 multiple myeloma tumour line. The experiment in a line: In vitro cytotoxicity, Microculture Tetrazolium Assay. The class given is cell-based. The method, then: The cytotoxicity studies were carried out on the H929 multiple myeloma tumour line.
The cells are distributed onto microplates and exposed to the test compounds for 48 hours.

Where [3] appears, read: fluorescence polarisation, Method 1, or Method 2.
The mark [4] stands for this setting: Homo sapiens, NCI-H929, 48 h, H929 cells, 48 hours exposure, MTT, read-out: IC50 (μM) MTT H929.
[5] abbreviates: Homo sapiens, NCI-H929, 48 h, read-out: IC50 (μM) MTT H929, H929 cells, 48 hours exposure, MTT.
[6] abbreviates: fluorescence polarisation test, Method 2 values are underlined in the patent (underlining not visible here).

Mcl-1 protein, sequence (Q07820 whole entry): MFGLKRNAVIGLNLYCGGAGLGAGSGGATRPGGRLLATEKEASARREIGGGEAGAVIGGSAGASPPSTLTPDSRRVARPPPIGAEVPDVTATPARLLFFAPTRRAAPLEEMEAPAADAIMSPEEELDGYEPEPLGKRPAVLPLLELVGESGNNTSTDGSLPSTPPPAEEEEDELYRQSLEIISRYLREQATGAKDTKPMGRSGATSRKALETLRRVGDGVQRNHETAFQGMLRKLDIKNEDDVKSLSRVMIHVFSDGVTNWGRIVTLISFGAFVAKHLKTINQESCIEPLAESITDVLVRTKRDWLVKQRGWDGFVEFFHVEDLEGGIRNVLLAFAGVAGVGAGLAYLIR

Usually IC50 stands for the concentration that gives 50% inhibition. On to `CCCCn1nccc1COc1ccccc1CC(Oc1ncnc2sc(-c3ccc(NCCOC)nc3)c(-c3ccc(OCCN4CCN(C)CC4)c(Cl)c3C)c12)C(=O)O` [Example 620, (2R)-3-{2-[(1-butyl-1H-pyrazol-5-yl)methoxy]phenyl}-2-[((5Sa)-5-{3-chloro-2-methyl-4-[2-(4-methylpiperazin-1-yl)ethoxy]phenyl}-6-{6-[(2-methoxyethyl)amino]pyridin-3-yl}thieno[2,3-d]pyrimidin-4-yl)oxy]propanoic acid], for which the 50% inhibitory concentration (IC50) in assay [1] (setting [3]) is 5.9e-09 M; in assay [2] (setting [4]) it was 0.532 µM.
For `COc1ccccc1C[C@@H](Oc1ncnc2sc(-c3ccc(F)cc3)c(-c3ccc(CCCN4CCN(C)CC4)c(Cl)c3C)c12)C(=O)O` (single isomer, unassigned) [Example 654], the figures for the IC50 in assay [1] (setting [3]) and in assay [2] (setting [5]) were 4e-08 M and 2.08 µM, respectively.
On to `COc1c(C)cccc1CC(Oc1ncnc2sc(-c3ccco3)c(-c3ccc(OCCN4CCN(C)CC4)c(Cl)c3C)c12)C(=O)O` [Example 351, (2R)-2-{[(5Sa)-5-{3-chloro-2-methyl-4-[2-(4-methylpiperazin-1-yl)ethoxy]phenyl}-6-(furan-2-yl)thieno[2,3-d]pyrimidin-4-yl]oxy}-3-(2-methoxy-3-methylphenyl)propanoic acid], for which the half-inhibitory concentration (IC50) in assay [1] (setting [6]) is 1.5e-08 M; in assay [2] (setting [4]) it was 0.526 µM.
The corresponding values for `Cc1c(-c2c(-c3ccco3)sc3ncnc(OC(Cc4ccccc4OCCc4ccccn4)C(=O)O)c23)ccc(OCCN2CCN(C)CC2)c1Cl` [Example 289, (2R)-2-{[(5Sa)-5-{3-chloro-2-methyl-4-[2-(4-methylpiperazin-1-yl)ethoxy]phenyl}-6-(furan-2-yl)thieno[2,3-d]pyrimidin-4-yl]oxy}-3-{2-[2-(pyridin-2-yl)ethoxy]phenyl}propanoic acid] are 1.4e-08 M and 0.18 µM.
With `COc1ccccc1C[C@@H](Oc1ncnc2sc(-c3cccc(F)c3F)c(-c3ccc(C#CCN4CCN(C)CC4)c(Cl)c3C)c12)C(=O)O` (single isomer, unassigned) [Example 717], the IC50 in assay [1] (setting [3]) came to 2.7e-08 M; in assay [2] (setting [5]), 0.865 µM.
Regarding `COCCOCCOc1ccccc1CC(Oc1ncnc2sc(-c3ccc(F)cc3)c(-c3ccc(OCCN4CCN(C)CC4)c(Cl)c3C)c12)C(=O)O` [Example 105, (2R)-2-{[(5Sa)-5-{3-chloro-2-methyl-4-[2-(4-methylpiperazin-1-yl)ethoxy]phenyl}-6-(4-fluorophenyl)thieno[2,3-d]pyrimidin-4-yl]oxy}-3-{2-[2-(2-methoxyethoxy)ethoxy]phenyl}propanoic acid], the IC50 in assay [1] (setting [6]) is 1.2e-08 M; in assay [2] (setting [4]), 0.251 µM.
For `COc1cc(-c2sc3ncnc(OC(Cc4ccccc4OCC(F)(F)F)C(=O)O)c3c2-c2ccc(OCCN3CCN(C)CC3)c(Cl)c2C)ccc1F` [Example 380, (2R)-2-{[(5Sa)-5-{3-chloro-2-methyl-4-[2-(4-methylpiperazin-1-yl)ethoxy]phenyl}-6-(4-fluoro-3-methoxyphenyl)thieno[2,3-d]pyrimidin-4-yl]oxy}-3-[2-(2,2,2-trifluoroethoxy)phenyl]propanoic acid] the same measures were 1.1e-08 M and 0.162 µM.
For the compound `COc1ccccc1-c1nccc(COc2ccccc2CC(Oc2ncnc3sc(-c4ccc(OCc5cccc(C)c5)cc4)c(-c4ccc(OCCN5CCN(C)CC5)c(Cl)c4C)c23)C(=O)O)n1` [Example 773, (2R)-2-[((5Sa)-5-{3-chloro-2-methyl-4-[2-(4-methylpiperazin-1-yl)ethoxy]phenyl}-6-{4-[(3-methylbenzyl)oxy]phenyl}thieno[2,3-d]pyrimidin-4-yl)oxy]-3-(2-{[2-(2-methoxyphenyl)pyrimidin-4-yl]methoxy}phenyl)propanoic acid], the values for the 50% inhibitory concentration (IC50) in assay [1] (setting [3]) and in assay [2] (setting [4]) were 1.25e-09 M and 0.017 µM, respectively.
Regarding `COc1ccccc1CC(Oc1ncnc2sc(-c3cccc(OCc4ccncc4)c3)c(-c3ccc(OCCN4CCN(C)CC4)c(Cl)c3C)c12)C(=O)O` [Example 587, (2R)-2-[((5Sa)-5-{3-chloro-2-methyl-4-[2-(4-methylpiperazin-1-yl)ethoxy]phenyl}-6-[3-(pyridin-4-ylmethoxy)phenyl]thieno[2,3-d]pyrimidin-4-yl)oxy]-3-(2-methoxyphenyl)propanoic acid], the 50% inhibitory concentration (IC50) in assay [1] (setting [3]) was determined as 2.6e-08 M; in assay [2] (setting [4]), 0.539 µM.
As to `Cc1c(OCCN2CCN(C)CC2)ccc(-c2c(-c3ccco3)sc3ncnc(OC(Cc4ccccc4OCC(F)(F)F)C(=O)O)c23)c1C` [Example 673, (2R)-2-[(5Sa)-5-[2,3-dimethyl-4-[2-(4-methylpiperazin-1-yl)ethoxy]phenyl]-6-(2-furyl)thieno[2,3-d]pyrimidin-4-yl]oxy-3-[2-(2,2,2-trifluoroethoxy)phenyl]propanoic acid], the values for the IC50 in assay [1] (setting [3]) and in assay [2] (setting [4]) were 1.1e-08 M and 0.576 µM, respectively.
In the case of `COc1nccc(COc2ccccc2CC(Oc2ncnc3sc(-c4ccco4)c(-c4ccc(OCCN5CCN(C)CC5)c(Cl)c4C)c23)C(=O)O)n1` [Example 255, (2R)-2-{[(5Sa)-5-{3-chloro-2-methyl-4-[2-(4-methylpiperazin-1-yl)ethoxy]phenyl}-6-(furan-2-yl)thieno[2,3-d]pyrimidin-4-yl]oxy}-3-{2-[(2-methoxypyrimidin-4-yl)methoxy]phenyl}propanoic acid], the figures for the IC50 in assay [1] (setting [6]) and in assay [2] (setting [4]) were 7.5e-09 M and 0.018 µM, respectively.
For `CCCn1nccc1COc1ccccc1CC(Oc1ncnc2sc(-c3ccc(F)cc3)c(-c3ccc(OCCN4CCN(C)CC4)c(Cl)c3C)c12)C(=O)O` [Example 81, (2R)-2-{[(5Sa)-5-{3-chloro-2-methyl-4-[2-(4-methylpiperazin-1-yl)ethoxy]phenyl}-6-(4-fluorophenyl)thieno[2,3-d]pyrimidin-4-yl]oxy}-3-{2-[(1-propyl-1H-pyrazol-5-yl)methoxy]phenyl}propanoic acid] the same measures were 7.6e-09 M and 0.034 µM.
As to `COCCCn1nncc1COc1ccccc1CC(Oc1ncnc2sc(-c3ccc(F)cc3)c(-c3ccc(OCCN4CCN(C)CC4)c(Cl)c3C)c12)C(=O)O` [Example 96, (2R)-2-{[(5Sa)-5-{3-chloro-2-methyl-4-[2-(4-methylpiperazin-1-yl)ethoxy]phenyl}-6-(4-fluorophenyl)thieno[2,3-d]pyrimidin-4-yl]oxy}-3-(2-{[1-(3-methoxypropyl)-1H-1,2,3-triazol-5-yl]methoxy}phenyl)propanoic acid], the IC50 in assay [1] (setting [6]) came to 3.8e-09 M; in assay [2] (setting [4]), 0.034 µM.
Take `COc1ccccc1CC(Oc1ncnc2sc(-c3cccc(SC)c3)c(-c3ccc(OCCN4CCN(C)CC4)c(Cl)c3C)c12)C(=O)O` [Example 558, (2R)-2-[((5Sa)-5-{3-chloro-2-methyl-4-[2-(4-methylpiperazin-1-yl)ethoxy]phenyl}-6-[3-(methylsulfanyl)phenyl]thieno[2,3-d]pyrimidin-4-yl)oxy]-3-(2-methoxyphenyl)propanoic acid]: the half-maximal inhibitory concentration (IC50) is 5.9e-08 M in assay [1] (setting [3]) and 0.742 µM in assay [2] (setting [4]).
For `COc1cnccc1-c1nccc(COc2ccccc2CC(Oc2ncnc3sc(-c4ccc(F)cc4)c(-c4ccc(OCCN5CCN(C)CC5)c(Cl)c4C)c23)C(=O)O)n1` [Example 730, (2R)-2-{[(5Sa)-5-{3-chloro-2-methyl-4-[2-(4-methylpiperazin-1-yl)ethoxy]phenyl}-6-(4-fluorophenyl)thieno[2,3-d]pyrimidin-4-yl]oxy}-3-(2-{[2-(3-methoxypyridin-4-yl)pyrimidin-4-yl]methoxy}phenyl)propanoic acid] the same measures were 9.48e-10 M and 0.005 µM.
Take `CC#Cc1sc2ncnc(OC(Cc3ccccc3OC)C(=O)O)c2c1-c1ccc(OCCN2CCCCC2)c(Cl)c1C` [Example 469, (2R)-2-{[(5Sa)-5-{3-chloro-2-methyl-4-[2-(piperidin-1-yl)ethoxy]phenyl}-6-(prop-1-yn-1-yl)thieno[2,3-d]pyrimidin-4-yl]oxy}-3-(2-methoxyphenyl)propanoic acid]: the results for the half-maximal inhibitory concentration (IC50) in assay [1] (setting [3]) and in assay [2] (setting [4]) were 1.5e-08 M and 3.06 µM, respectively.
As to `CCc1sc2ncnc(OC(Cc3ccccc3)C(=O)O)c2c1-c1ccc(OCC(=O)N2CCCC2)c(Cl)c1C` [Example 391, (2R)-2-[((5Sa)-5-{3-chloro-2-methyl-4-[2-oxo-2-(pyrrolidin-1-yl)ethoxy]phenyl}-6-ethylthieno[2,3-d]pyrimidin-4-yl)oxy]-3-phenylpropanoic acid], the 50% inhibitory concentration (IC50) in assay [1] (setting [6]) came out at 3.7e-08 M; in assay [2] (setting [4]), 22.1 µM.
On to `CCOC(=O)[C@@H](Cc1ccccc1OCc1ccnc(OC)n1)Oc1ncnc2sc(-c3ccc(F)o3)c(-c3ccc(OCCN4CCN(C)CC4)c(Cl)c3C)c12` [Example 625, ethyl (2R)-2-{[(5Sa)-5-{3-chloro-2-methyl-4-[2-(4-methylpiperazin-1-yl)ethoxy]phenyl}-6-(5-fluorofuran-2-yl)thieno[2,3-d]pyrimidin-4-yl]oxy}-3-{2-[(2-methoxypyrimidin-4-yl)methoxy]phenyl}propanoate], for which the “percentage fluorescence polarisation inhibition, Mcl-1 FP” value in assay [1] (partial inhibitors, @ 10 uM test compound) came to 74.85% @ 10 uM. Also, in assay [2] (H929 cells, 48 hours exposure, MTT, read-out: IC50 (μM) MTT H929), the IC50 is 0.62 µM.
As for `COc1ccc(-c2nccc(COc3ccccc3CC(Oc3ncnc4sc(-c5ccc(F)cc5)c(-c5ccc(OCCN6CCN(C)CC6)c(Cl)c5C)c34)C(=O)O)n2)cn1` [Example 111, (2R)-2-{[(5Sa)-5-{3-chloro-2-methyl-4-[2-(4-methylpiperazin-1-yl)ethoxy]phenyl}-6-(4-fluorophenyl)thieno[2,3-d]pyrimidin-4-yl]oxy}-3-(2-{[2-(6-methoxypyridin-3-yl)pyrimidin-4-yl]methoxy}phenyl)propanoic acid], the IC50 in assay [1] (setting [6]) is 3.3e-09 M; in assay [2] (setting [4]) it was 0.008 µM.
